Values quoted from earlier work, collected in patent publication US5585357A, “Heteroaryloxymethyl ketones as interleukin-1βconverting enzyme inhibitors” (Sanofi Winthrop Inc., priority 1996, dated 1996).

Key:
[1] = rat, oral administration
[2] = animal model of ulcerative colitis
[3] = PG-APS model of arthritis in rats
[4] = test system: chronic myelogenous leukemia cells; conditions: cells removed from leukemia patients
[5] = small open-label human trial, subcutaneous

| Molecule | inflammation and pyrexia [1] | tissue necrosis and number of inflammatory cells in the colon [2] | joint swelling [3] | colony growth [4] | efficacy in Rheumatoid Arthritis [5] |
| --- | --- | --- | --- | --- | --- |
| CCOC(=O)C[C@H](NC(=O)[C@H](C)NC(=O)[C@@H](NC(=O)OCc1ccccc1)C(C)C)C(=O)COC(=O)c1c(Cl)cccc1Cl [SDZ 224-015] | Reduction of inflammation and pyrexia | – | – | – | – |
| IL-1ra: naturally occurring IL-1β receptor antagonist | – | reduced tissue necrosis and the number of inflammatory cells in the colon | supresses joint swelling | inhibit colony growth | shows efficacy |
